IC50 data for 15 compounds are collected here from patent US20250215030A1, “STAT MODULATORS AND USES THEREOF” (Recludix Pharma, Inc., priority 2022, published 2025).

For orientation: IC50 means the concentration that inhibits the measured activity by half.

Experiment [1] deals with T1, Recombinant STAT3 protein (STAT3(G127-I722)) (Homo sapiens, UniProt P40763).
T1 construct: STAT3(G127-I722)
Nature of the experiment: STAT3 Fluorescence Polarization (FP) Assay. In kind it is binding. The conditions noted are these: STAT3(G127-I722) 25 nM, probe 5-FAM-GpYLPQTV-NH2 2 nM, 45-minute incubation. The essentials:
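STAT3(G127-I722) at 25 nM and 5-FAM-GpYLPQTV-NH2 probe at 2 nM in HEPES pH 7.4 buffer with NaCl, EDTA, Tween 20, DTT; 1% DMSO. FP read after 45 min at room temperature; IC50 by nonlinear regression of mP vs log concentration, binned A ≤100 nM to D >10 μM.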
(Fluorescence polarisation rises when a labelled molecule tumbles more slowly, as on binding a larger partner.)

The target of experiment [2] is T2, Recombinant STAT6 protein (STAT6(W123-T658)) (Homo sapiens, UniProt P42226).
T2 construct: STAT6(W123-T658)
T2 sequence (P42226 123-658): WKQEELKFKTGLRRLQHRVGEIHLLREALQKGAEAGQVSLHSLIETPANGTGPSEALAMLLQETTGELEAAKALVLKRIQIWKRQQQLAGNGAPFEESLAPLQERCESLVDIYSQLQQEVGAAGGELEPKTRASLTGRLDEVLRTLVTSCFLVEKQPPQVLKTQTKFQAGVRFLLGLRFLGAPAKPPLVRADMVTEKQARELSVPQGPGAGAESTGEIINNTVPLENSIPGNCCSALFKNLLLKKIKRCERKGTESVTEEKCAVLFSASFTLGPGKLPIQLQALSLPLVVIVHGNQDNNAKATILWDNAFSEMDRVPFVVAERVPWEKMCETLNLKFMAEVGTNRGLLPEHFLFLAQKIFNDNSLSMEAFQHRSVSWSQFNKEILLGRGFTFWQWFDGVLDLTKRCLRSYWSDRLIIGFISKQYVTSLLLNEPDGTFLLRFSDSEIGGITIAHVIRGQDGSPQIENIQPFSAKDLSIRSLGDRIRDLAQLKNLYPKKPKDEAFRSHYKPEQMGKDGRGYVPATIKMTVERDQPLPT
Nature of the experiment: STAT6 Fluorescence Polarization (FP) Assay. The experiment is classed as binding. To be noted: STAT6(W123-T658) 250 nM, probe 5-FAM-ApYKPFQDLI-NH2 2 nM, 45-minute incubation. The essentials:
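STAT6 (W123-T658) at 250 nM mixed with 2 nM 5-FAM-ApYKPFQDLI-NH2 probe in HEPES pH 7.4 buffer with DTT and Tween 20, 1% DMSO final. Polarization read after 45 min at room temperature; IC50 by nonlinear regression of mP versus log concentration, reported in bins A–D.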

T1 sequence (P40763 127-722, species assumed): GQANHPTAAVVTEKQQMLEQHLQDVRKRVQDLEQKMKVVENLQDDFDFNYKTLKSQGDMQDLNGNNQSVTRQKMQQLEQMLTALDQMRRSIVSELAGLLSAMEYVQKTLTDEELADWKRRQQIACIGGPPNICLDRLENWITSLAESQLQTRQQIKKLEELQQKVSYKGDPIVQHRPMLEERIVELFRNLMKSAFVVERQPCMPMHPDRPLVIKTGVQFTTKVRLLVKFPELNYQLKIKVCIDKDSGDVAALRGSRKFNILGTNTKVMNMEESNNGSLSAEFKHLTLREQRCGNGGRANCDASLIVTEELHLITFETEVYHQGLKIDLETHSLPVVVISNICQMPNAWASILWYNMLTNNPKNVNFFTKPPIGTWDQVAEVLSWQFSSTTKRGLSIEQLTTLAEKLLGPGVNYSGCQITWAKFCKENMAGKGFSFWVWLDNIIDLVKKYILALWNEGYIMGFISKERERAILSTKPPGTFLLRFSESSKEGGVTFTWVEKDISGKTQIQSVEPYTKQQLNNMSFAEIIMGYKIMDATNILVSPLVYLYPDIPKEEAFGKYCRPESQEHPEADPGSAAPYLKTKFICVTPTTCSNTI

On to `Cc1cnc(N2C[C@H](NC(=O)[C@@H]3CC[C@@H]4C[C@H]5C[C@H]5C[C@H](NC(=O)c5cc6cc(C(F)P(=O)(O)O)ccc6s5)C(=O)N43)[C@@H](F)C2)n1C` (stereo partly drawn) [Example 376, ((2-(((3S,6S,7aS,8aR,9aR)-3-(((3S,4S)-1-(1,5-dimethyl-1H-imidazol-2-yl)-4-fluoropyrrolidin-3-yl)carbamoyl)-5-oxodecahydro-1H-cyclopropa[d]pyrrolo[1,2-a]azocin-6-yl)carbamoyl)benzo[b]thiophen-5-yl)fluoromethyl)phosphonic acid], for which the figures for the IC50 in experiment [1] and in experiment [2] were less than 0.1 µM and 3 to 30 µM, respectively.

In the case of `CC(C)(CNC(=O)[C@@H]1CC[C@@H]2C[C@@H]3C[C@@H]3C[C@H](NC(=O)c3cc4cc(C(F)(F)P(=O)(O)O)ccc4s3)C(=O)N21)c1cccnc1` [Compound 122, (difluoro(2-(((3S,6S,7aR,8aS,9aR)-3-((2-methyl-2-(pyridin-3-yl)propyl)carbamoyl)-5-oxodecahydro-1H-cyclopropa[d]pyrrolo[1,2-a]azocin-6-yl)carbamoyl)benzo[b]thiophen-5-yl)methyl)phosphonic acid], the IC50 in experiment [1] fell in the range of 0.1 to 1 µM; in experiment [2] it was 3 to 30 µM.

`CC(=O)N1CC[C@@H](NC(=O)[C@@H]2CC[C@@H]3C[C@H]4C[C@H]4C[C@H](NC(=O)c4cc5cc(C(F)(F)P(=O)(O)O)ccc5s4)C(=O)N32)C1` [Compound 116, ((2-(((3S,6S,7aS,9aR)-3-(((R)-1-acetylpyrrolidin-3-yl)carbamoyl)-5-oxodecahydro-1H-cyclopropa[d]pyrrolo[1,2-a]azocin-6-yl)carbamoyl)benzo[b]thiophen-5-yl)difluoromethyl)phosphonic acid]: the IC50 in experiment [1] was less than 0.1 µM; in experiment [2], 0.3 to 3 µM.

For `O=C(N[C@H]1C[C@H]2C[C@H]2C[C@H]2CC[C@@H](C(=O)N3CC(c4cnccc4F)C3)N2C1=O)c1cc2cc(CP(=O)(O)O)ccc2s1` [Example 250, ((2-(((3S,6S,7aR,8aS,9aR)-3-(3-(4-fluoropyridin-3-yl)azetidine-1-carbonyl)-5-oxodecahydro-1H-cyclopropa[d]pyrrolo[1,2-a]azocin-6-yl)carbamoyl)benzo[b]thiophen-5-yl)methyl)phosphonic acid], the 50% inhibitory concentration (IC50) was less than 0.1 µM in experiment [1] and 3 to 30 µM in experiment [2].

For the compound `Cc1cn(C)c(N2C[C@H](NC(=O)[C@@H]3CC[C@@H]4C[C@H]5C[C@H]5C[C@H](NC(=O)c5cc6cc(C(F)P(=O)(O)O)ccc6s5)C(=O)N43)[C@@H](F)C2)n1` (stereo partly drawn) [Example 348, ((2-(((3S,6S,7aS,8aR,9aR)-3-(((3S,4S)-1-(1,4-dimethyl-1H-imidazol-2-yl)-4-fluoropyrrolidin-3-yl)carbamoyl)-5-oxodecahydro-1H-cyclopropa[d]pyrrolo[1,2-a]azocin-6-yl)carbamoyl)benzo[b]thiophen-5-yl)fluoromethyl)phosphonic acid], the IC50 in experiment [1] was less than 0.1 µM; in experiment [2], 3 to 30 µM.

Regarding `O=C(N[C@H]1C[C@@H]2C[C@@H]2C[C@H]2CC[C@@H](C(=O)N3CC(N4CCOCC4)C3)N2C1=O)c1cc2cc(C(F)(F)P(=O)(O)O)ccc2s1` [Compound 91, (difluoro(2-(((3S,6S,7aS,8aR,9aR)-3-(3-morpholinoazetidine-1-carbonyl)-5-oxodecahydro-1H-cyclopropa[d]pyrrolo[1,2-a]azocin-6-yl)carbamoyl)benzo[b]thiophen-5-yl)methyl)phosphonic acid], the figures for the IC50 in experiment [1] and in experiment [2] were 0.1 to 1 µM and 3 to 30 µM, respectively.

For `O=C(N[C@H]1C[C@H]2C[C@H]2C[C@H]2CC[C@@H](C(=O)N3CC(c4nc5ccccc5[nH]4)C3)N2C1=O)c1cc2cc(C(F)(F)P(=O)(O)O)ccc2s1` [Compound 78, ((2-(((3S,6S,7aR,8aS,9aR)-3-(3-(1H-benzo[d]imidazol-2-yl)azetidine-1-carbonyl)-5-oxodecahydro-1H-cyclopropa[d]pyrrolo[1,2-a]azocin-6-yl)carbamoyl)benzo[b]thiophen-5-yl)difluoromethyl)phosphonic acid], the IC50 in experiment [1] was less than 0.1 µM; in experiment [2], 3 to 30 µM.

For the compound `CC(=O)N1CC2C1CCN2C(=O)[C@@H]1CC[C@@H]2C[C@H]3C[C@H]3C[C@H](NC(=O)c3cc4cc(CP(=O)(O)O)ccc4s3)C(=O)N21` (stereo partly drawn) [Example 260, ((2-(((3S,6S,7aS,8aR,9aR)-3-(6-acetyl-2,6-diazabicyclo[3.2.0]heptane-2-carbonyl)-5-oxodecahydro-1H-cyclopropa[d]pyrrolo[1,2-a]azocin-6-yl)carbamoyl)benzo[b]thiophen-5-yl)methyl)phosphonic acid], the IC50 in experiment [1] is 1 to 10 µM; in experiment [2] it was greater than 30 µM.

As for `O=C(N[C@H]1C[C@H]2C[C@H]2C[C@H]2CC[C@@H](C(=O)N[C@H]3CN(c4cccnc4)C[C@@H]3F)N2C1=O)c1cc2cc(CP(=O)(O)O)ccc2s1` [Example 253, ((2-(((3S,6S,7aR,8aS,9aR)-3-(((3S,4S)-4-fluoro-1-(pyridin-3-yl)pyrrolidin-3-yl)carbamoyl)-5-oxodecahydro-1H-cyclopropa[d]pyrrolo[1,2-a]azocin-6-yl)carbamoyl)benzo[b]thiophen-5-yl)methyl)phosphonic acid], the values for the IC50 in experiment [1] and in experiment [2] were less than 0.1 µM and 3 to 30 µM, respectively.

For `O=C(N[C@H]1C[C@@H]2C[C@@H]2C[C@H]2CC[C@@H](C(=O)N[C@H]3CNC[C@@H]3F)N2C1=O)c1cc2cc(CP(=O)(O)O)ccc2s1` [Example 276, ((2-(((3S,6S,7aS,8aR,9aR)-3-(((3S,4S)-4-fluoropyrrolidin-3-yl)carbamoyl)-5-oxodecahydro-1H-cyclopropa[d]pyrrolo[1,2-a]azocin-6-yl)carbamoyl)benzo[b]thiophen-5-yl)methyl)phosphonic acid], the half-maximal inhibitory concentration (IC50) in experiment [1] is 1 to 10 µM; in experiment [2], greater than 30 µM.

On to `C[C@@]12C[C@H](NC(=O)c3cc4cc(C(F)(F)P(=O)(O)O)ccc4s3)C(=O)N3[C@H](CC[C@H]3C(=O)N3CC(c4cccnc4)C3)[C@@H]1C2` [Compound 38, (difluoro(2-(((3S,6S,7aR,8aS,9aR)-7a-methyl-5-oxo-3-(3-(pyridin-3-yl)azetidine-1-carbonyl)decahydro-1H-cyclopropa[d]pyrrolo[1,2-a]azocin-6-yl)carbamoyl)benzo[b]thiophen-5-yl)methyl)phosphonic acid], for which the half-maximal inhibitory concentration (IC50) fell in the range of 0.1 to 1 µM in experiment [1] and 3 to 30 µM in experiment [2].

In the case of `O=C(N[C@H]1C[C@H]2C[C@H]2C[C@H]2CC[C@@H](C(=O)N3CC(c4cnccc4F)C3)N2C1=O)c1cc2cc(C(F)P(=O)(O)O)ccc2s1` (stereo partly drawn) [Example 248, (fluoro(2-(((3S,6S,7aR,8aS,9aR)-3-(3-(4-fluoropyridin-3-yl)azetidine-1-carbonyl)-5-oxodecahydro-1H-cyclopropa[d]pyrrolo[1,2-a]azocin-6-yl)carbamoyl)benzo[b]thiophen-5-yl)methyl)phosphonic acid], the values for the IC50 in experiment [1] and in experiment [2] were less than 0.1 µM and 0.3 to 3 µM, respectively.

`O=C(N[C@H]1C[C@@H]2C[C@@H]2C[C@H]2CC[C@@H](C(=O)N3CCN(C(=O)c4cc[nH]n4)CC3)N2C1=O)c1cc2cc(C(F)(F)P(=O)(O)O)ccc2s1` [Compound 105, ((2-(((3S,6S,7aS,8aR,9aR)-3-(4-(1H-pyrazole-3-carbonyl)piperazine-1-carbonyl)-5-oxodecahydro-1H-cyclopropa[d]pyrrolo[1,2-a]azocin-6-yl)carbamoyl)benzo[b]thiophen-5-yl)difluoromethyl)phosphonic acid]: the IC50 was 0.1 to 1 µM in experiment [1] and 0.3 to 3 µM in experiment [2].

`Cc1nnc(C2CN(C(=O)[C@@H]3CC[C@@H]4C[C@H]5C[C@H]5C[C@H](NC(=O)c5cc6cc(C(F)P(=O)(O)O)ccc6s5)C(=O)N43)C2)o1` (stereo partly drawn) [Example 327, (fluoro(2-(((3S,6S,7aS,8aR,9aR)-3-(3-(5-methyl-1,3,4-oxadiazol-2-yl)azetidine-1-carbonyl)-5-oxodecahydro-1H-cyclopropa[d]pyrrolo[1,2-a]azocin-6-yl)carbamoyl)benzo[b]thiophen-5-yl)methyl)phosphonic acid]: the IC50 in experiment [1] was in the range of 0.1 to 1 µM; in experiment [2], 3 to 30 µM.

With `O=C(N[C@H]1C[C@@H]2C[C@@H]2C[C@H]2CC[C@@H](C(=O)N3CC(c4ccon4)C3)N2C1=O)c1cc2cc(C(F)(F)P(=O)(O)O)ccc2s1` [Example 299, (difluoro(2-(((3S,6S,7aS,8aR,9aR)-3-(3-(isoxazol-3-yl)azetidine-1-carbonyl)-5-oxodecahydro-1H-cyclopropa[d]pyrrolo[1,2-a]azocin-6-yl)carbamoyl)benzo[b]thiophen-5-yl)methyl)phosphonic acid], the values for the IC50 in experiment [1] and in experiment [2] were less than 0.1 µM and 0.3 to 3 µM, respectively.
